# Patent US10175256B2, “Compositions and methods utilizing lysophosphatidylcholine scaffolds” (National University Of Singapore, priority 2013, dated 2019)
# Several values for one entry are separate records, joined by “and”; a condition that tells them apart may be missing. Identical values can stand only once.
# Target: T1, mouse Mfsd2a (Mus musculus, UniProt Q9DA75)
# T1 construct: expressed in transfected cells; host or cells: HEK293
# T1 sequence (Q9DA75 1-534): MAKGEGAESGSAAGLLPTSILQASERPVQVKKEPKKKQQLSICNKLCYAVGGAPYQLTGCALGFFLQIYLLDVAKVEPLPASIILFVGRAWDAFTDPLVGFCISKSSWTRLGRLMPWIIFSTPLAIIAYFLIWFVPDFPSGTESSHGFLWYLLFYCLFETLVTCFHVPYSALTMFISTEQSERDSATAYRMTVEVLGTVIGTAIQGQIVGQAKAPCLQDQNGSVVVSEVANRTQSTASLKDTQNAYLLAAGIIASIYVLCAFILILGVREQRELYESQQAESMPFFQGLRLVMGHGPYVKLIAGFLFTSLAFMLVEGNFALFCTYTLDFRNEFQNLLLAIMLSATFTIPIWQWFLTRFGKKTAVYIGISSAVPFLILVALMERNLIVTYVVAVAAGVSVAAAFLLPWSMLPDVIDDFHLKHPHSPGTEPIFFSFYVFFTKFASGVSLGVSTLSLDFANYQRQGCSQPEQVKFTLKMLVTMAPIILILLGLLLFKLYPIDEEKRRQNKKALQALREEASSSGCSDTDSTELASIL
# Experiment: Cell-based free fatty acid transport/uptake in Mfsd2a expressing HEK293 cells (mass spectrometry, TLC; Table 1)
# Conditions: Mfsd2a HEK293 cells, 100 uM fatty acid/BSA overnight
# Summary of the method: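 HEK293 cells expressing mouse Mfsd2a, or mock controls, were incubated overnight with 100 μM BSA-complexed fatty acids. Lipids were extracted in hexane:isopropanol (3:2) and phospholipid species quantified by HPLC-MS/MS against spiked internal standards. For TLC, cells received 100 μM [^14C]-oleate overnight, and phospholipids and neutral lipids were resolved.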
structure (smiles),measurement,value
CCCCCCCCCCCCCCCC(=O)O [Palmitic acid],PE34p:2 in total phospholipid,0.2893 mol percent and 0.2458 mol percent and 0.4295 mol percent
same,PE36:1 in total phospholipid,1.713 mol percent and 1.465 mol percent and 1.861 mol percent
same,PE36:2 in total phospholipid,2.152 mol percent and 2.192 mol percent and 2.267 mol percent
same,PE36:3 in total phospholipid,0.4629 mol percent and 0.5112 mol percent and 0.4773 mol percent
same,PE36:4 in total phospholipid,0.3125 mol percent and 0.2556 mol percent and 0.346 mol percent
same,PE36p:1 in total phospholipid,0.5555 mol percent and 0.4227 mol percent and 0.5608 mol percent
same,PE36p:2 in total phospholipid,0.7869 mol percent and 0.5996 mol percent and 0.6801 mol percent
same,PE36p:3 in total phospholipid,0.8448 mol percent and 0.8061 mol percent and 1.169 mol percent
same,PE36p:4 in total phospholipid,1.273 mol percent and 1.14 mol percent and 1.432 mol percent
same,PE38:1 in total phospholipid,0.4976 mol percent and 0.3342 mol percent and 0.5727 mol percent
same,PE38:2 in total phospholipid,0.3125 mol percent and 0.3342 mol percent and 0.3579 mol percent
same,PE38:3 in total phospholipid,0.6133 mol percent and 0.6685 mol percent and 0.6204 mol percent
same,PE38:4 in total phospholipid,0.9026 mol percent and 0.9732 mol percent and 1.301 mol percent
same,PE38:5 in total phospholipid,0.486 mol percent and 0.4227 mol percent and 0.5488 mol percent
same,PE38:6 in total phospholipid,0.2083 mol percent and 0.1081 mol percent and 0.1432 mol percent
same,PE38:7 in total phospholipid,0.08101 mol percent and 0.07864 mol percent and 0.04773 mol percent
same,PE38p:0 in total phospholipid,0.1273 mol percent and 0.118 mol percent and 0.1074 mol percent
same,PE38p:1 in total phospholipid,0.1504 mol percent and 0.1769 mol percent and 0.2744 mol percent
same,PE38p:2 in total phospholipid,0.3935 mol percent and 0.2359 mol percent and 0.3937 mol percent
same,PE38p:3 in total phospholipid,0.9721 mol percent and 0.8651 mol percent and 0.9426 mol percent
same,PE38p:4 in total phospholipid,0.9142 mol percent and 0.9437 mol percent and 1.086 mol percent
same,PE38p:5 in total phospholipid,0.9489 mol percent and 0.7569 mol percent and 0.8591 mol percent
same,PE38p:6 in total phospholipid,1.215 mol percent and 1.298 mol percent and 1.348 mol percent
same,PE40:3 in total phospholipid,0.08101 mol percent and 0.0983 mol percent and 0.1074 mol percent
same,PE40:4 in total phospholipid,0.1157 mol percent and 0.118 mol percent and 0.1909 mol percent
same,PE40:5 in total phospholipid,0.1504 mol percent and 0.1868 mol percent and 0.1909 mol percent
same,PE40:6 in total phospholipid,0.4282 mol percent and 0.3539 mol percent and 0.3699 mol percent
same,PE40p:4 in total phospholipid,0.1736 mol percent and 0.1769 mol percent and 0.3102 mol percent
same,PE40p:5 in total phospholipid,0.2893 mol percent and 0.2064 mol percent and 0.3341 mol percent
same,PE40p:6 in total phospholipid,0.6018 mol percent and 0.6095 mol percent and 0.4892 mol percent
same,PE42:7 in total phospholipid,0.06943 mol percent and 0.05898 mol percent and 0.09545 mol percent
same,PE42p:4 in total phospholipid,0.09258 mol percent and 0.1081 mol percent and 0.1074 mol percent
same,PI 32:1 in total phospholipid,0.01515 mol percent and 0.01528 mol percent and 0.0154 mol percent
same,PI 32:2 in total phospholipid,0.002439 mol percent and 0.002103 mol percent and 0.001294 mol percent
same,PI 34:1 in total phospholipid,0.1103 mol percent and 0.114 mol percent and 0.1029 mol percent
same,PI 34:2 in total phospholipid,0.0629 mol percent and 0.06982 mol percent and 0.06458 mol percent
same,PI 36:1 in total phospholipid,0.1503 mol percent and 0.1538 mol percent and 0.1543 mol percent
same,PI 36:2 in total phospholipid,0.3719 mol percent and 0.3721 mol percent and 0.3402 mol percent
same,PI 36:3 in total phospholipid,0.1684 mol percent and 0.1865 mol percent and 0.158 mol percent
same,PI 36:4 in total phospholipid,0.03864 mol percent and 0.0429 mol percent and 0.03921 mol percent
same,PI 38:2 in total phospholipid,0.3564 mol percent and 0.36 mol percent and 0.319 mol percent
same,PI 38:3 in total phospholipid,1.005 mol percent and 1.022 mol percent and 0.9636 mol percent
same,PI 38:4 in total phospholipid,0.3607 mol percent and 0.3811 mol percent and 0.3385 mol percent
same,PI 38:5 in total phospholipid,0.05186 mol percent and 0.04823 mol percent and 0.04943 mol percent
same,PI 38:6 in total phospholipid,0.006419 mol percent and 0.006589 mol percent and 0.006082 mol percent
same,PI 40:3 in total phospholipid,0.02721 mol percent and 0.02636 mol percent and 0.02342 mol percent
same,PI 40:4 in total phospholipid,0.01374 mol percent and 0.0136 mol percent and 0.01449 mol percent
same,PI 40:5 in total phospholipid,0.006419 mol percent and 0.00673 mol percent and 0.006341 mol percent
same,PI 40:6 in total phospholipid,0.008088 mol percent and 0.005328 mol percent and 0.005047 mol percent
same,PS(sum) in total phospholipid,2.6184 mol percent and 2.721 mol percent and 2.696 mol percent
same,PS:34:1 in total phospholipid,0.4034 mol percent and 0.439 mol percent and 0.4315 mol percent
same,PS:34:2 in total phospholipid,0.04042 mol percent and 0.03854 mol percent and 0.04968 mol percent
same,PS:36:1 in total phospholipid,1.063 mol percent and 1.166 mol percent and 1.107 mol percent
same,PS:36:2 in total phospholipid,0.3989 mol percent and 0.3832 mol percent and 0.387 mol percent
same,PS:36:3 in total phospholipid,0.02599 mol percent and 0.02171 mol percent and 0.02615 mol percent
same,PS:36:4 in total phospholipid,0.004537 mol percent and 0.005316 mol percent and 0.006102 mol percent
same,PS:38:2 in total phospholipid,0.2194 mol percent and 0.2087 mol percent and 0.231 mol percent
same,PS:38:3 in total phospholipid,0.1497 mol percent and 0.1471 mol percent and 0.1469 mol percent
same,PS:38:4 in total phospholipid,0.05651 mol percent and 0.07531 mol percent and 0.06102 mol percent
same,PS:38:5 in total phospholipid,0.007425 mol percent and 0.01063 mol percent and 0.01438 mol percent
same,PS:40:4 in total phospholipid,0.07342 mol percent and 0.05892 mol percent and 0.05971 mol percent
same,PS:40:5 in total phospholipid,0.04908 mol percent and 0.05626 mol percent and 0.06189 mol percent
same,PS:40:6 in total phospholipid,0.1089 mol percent and 0.09746 mol percent and 0.1011 mol percent
same,PS:40:7 in total phospholipid,0.01732 mol percent and 0.0124 mol percent and 0.01264 mol percent
same,Total PC + lysoPC in total phospholipid,67.6 mol percent and 68.89 mol percent and 64.689 mol percent
same,Total PE + lysoPE in total phospholipid,26.98 mol percent and 25.52 mol percent and 29.98 mol percent
same,Total PI + lysoPI in total phospholipid,2.796 mol percent and 2.866 mol percent and 2.638 mol percent
